Data on three compounds can be found in patent US20090181981A1, “CRYSTALLINE (R)-2-(4-CYCLOPROPANESULPHONYL-PHENYL)-N-PYRAZIN-2-YL-3-(TETRAHYDROPYRAN-4-YL)-PROPIONAMIDE” (priority 2008, published 2009).

Series [1] concerns the target T1, Glucokinase (GK) (Homo sapiens, UniProt P35557).
T1 sequence (P35557 1-465): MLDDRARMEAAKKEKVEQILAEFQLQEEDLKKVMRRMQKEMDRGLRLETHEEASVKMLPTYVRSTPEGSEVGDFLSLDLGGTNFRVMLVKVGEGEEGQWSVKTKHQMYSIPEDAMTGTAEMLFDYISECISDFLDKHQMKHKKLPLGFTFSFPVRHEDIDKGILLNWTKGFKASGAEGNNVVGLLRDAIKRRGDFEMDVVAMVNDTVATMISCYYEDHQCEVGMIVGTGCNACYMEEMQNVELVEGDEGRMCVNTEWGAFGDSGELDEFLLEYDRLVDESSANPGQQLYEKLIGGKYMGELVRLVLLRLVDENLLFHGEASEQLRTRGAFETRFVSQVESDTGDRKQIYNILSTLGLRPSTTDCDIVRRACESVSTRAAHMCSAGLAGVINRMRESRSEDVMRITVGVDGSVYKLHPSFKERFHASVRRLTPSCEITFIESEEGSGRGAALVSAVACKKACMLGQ
To be noted: WO2004/072031; cited from earlier work.

For series [2], the system named is Glucokinase (GK). The conditions noted are these: WO2004/072031; cited from earlier work.
The nature of series [3]: Glass transition temperature / thermal stability of the solid. The conditions noted are these: as evidenced by low glass transition temperature. The class given is physicochemical. The source says:
(§1) Glucokinase is important in regulation of plasma glucose levels. It is thought that GK activators increase a body's sensitivity to glucose. Consequently, GK activators are effective in the treatment of hyperglycemia, insulin resistance, and diabetes, particularly in type II diabetes. […] (WO2004/072031) However, amorphous CPTP is not suitable for pharmaceutically elegant drug formulation.

A short description of series [4]: Hygroscopicity and storage at ambient temperature. It is filed as physicochemical. As to the method: as §1
(§2) Crystalline CPTP has an onset of melting as measured by differential scanning calorimetry of 156° C., which renders it acceptable for standard industrial processes such as milling. […]

Series [5] can be described thus: pKa by photometric titration. The class given is physicochemical. The conditions noted are these: determined by photometric titration. An excerpt: Salt formation was also extensively investigated. However, formation of isolable CPTP salts is hampered by the low pK (pKa1=0.17, determined by photometric titration) of CPTP.
Series [6] in a line: Crystalline CPTP stability summary (storage at controlled temperature and relative humidity). It is filed as physicochemical. To be noted: for Chiral Purity: chiral HPLC area percent; for Achiral Purity: total impurities by achiral HPLC. Here is the method: as §2
Where [7] appears, read: 25° C. 60% relative humidity, 1 month.
The mark [8] stands for this setting: 25° C. 60% relative humidity, 3 months.
Setting [9] is: 25° C. 60% relative humidity, Initial.
[10] abbreviates: 40° C. 60% relative humidity, 1 Month.
[11] abbreviates: 40° C. 60% relative humidity, 3 Months.
The mark [12] stands for this setting: 40° C. 60% relative humidity, Initial.

`O=C(Nc1cnccn1)[C@H](CC1CCOCC1)c1ccc(S(=O)(=O)C2CC2)cc1` [Amorphous CPTP, R-2-(4-cyclopropanesulfonyl-phenyl)-N-pyrazin-2-yl-3-(tetrahydropyran-4-yl)-propionamide]: the “activity in in-vitro GK assay” value at Glucokinase (GK) [1] is on record as “active”. Moreover, the “activity in in-vivo GK assay” value in the series on Glucokinase (GK) [2] was “active”. Also, the thermal stability result in series [3] is “limited thermal stability”. The hygroscopicity entry in series [4] is reported as “is hygroscopic”.
`O=C(Nc1cnccn1)[C@H](CC1CCOCC1)c1ccc(S(=O)(=O)C2CC2)cc1` [CPTP, R-2-(4-cyclopropanesulfonyl-phenyl)-N-pyrazin-2-yl-3-(tetrahydropyran-4-yl)-propionamide] displayed a pKa1 in series [5] of 0.17.
For the compound `O=C(Nc1cnccn1)[C@H](CC1CCOCC1)c1ccc(S(=O)(=O)C2CC2)cc1` [Crystalline CPTP, R-2-(4-cyclopropanesulphonyl-phenyl)-N-pyrazin-2-yl-3-(tetrahydropyran-4-yl)-propionamide], in series [6] (setting [7]), the Appearance entry is “White”, the Assay came out at 99.9 % w/w, the Total Impurities stood at 0.18% and the Water is <0.10 % w/w. Moreover, in series [6] (setting [7]), the “Chiral Purity” value turned out to be 100 % a/a and the “Achiral Purity” value was 0.18 % a/a. For the same compound, in series [6] (setting [8]), the Appearance result is “White”, the Assay is reported as 99.6 % w/w, the Total Impurities amounted to 0.23% and the Water is <0.01 % w/w. Also, in series [6] (setting [8]), the “Chiral Purity” value came to 100 % a/a and the “Achiral Purity” value is 0.23 % a/a. For the same compound, in series [6] (setting [9]), the Appearance result is “White”, the Assay is 100.3 % w/w, the Total Impurities worked out at 0.25% and the Water is on record as <0.07 % w/w. For the same compound, in series [6] (setting [9]), the “Chiral Purity” value turned out to be 100 % a/a and the “Achiral Purity” value was determined as 0.25 % a/a. Further, in series [6] (setting [10]), the Appearance entry is “White”, the Assay was found to be 100.1 % w/w, the Total Impurities is 0.2% and the Water is <0.10 % w/w. Besides, in series [6] (setting [10]), the “Chiral Purity” value was 100 % a/a and the “Achiral Purity” value turned out to be 0.20 % a/a. Besides, in series [6] (setting [11]), the Appearance entry is “White”, the Assay was 99.3 % w/w, the Total Impurities came to 0.25% and the Water was <0.01 % w/w. Besides, in series [6] (setting [11]), the “Chiral Purity” value was determined as 100 % a/a and the “Achiral Purity” value amounted to 0.25 % a/a. In series [6] (setting [12]), the Appearance result was “White”, the Assay amounted to 100.3 % w/w, the Total Impurities was 0.25% and the Water is reported as <0.07 % w/w. In series [6] (setting [12]), the “Chiral Purity” value worked out at 100 % a/a and the “Achiral Purity” value is given as 0.25 % a/a. In addition, in series [4] (stored at ambient temperature), the degradation on storage result was “minor or no degradation”; the “hygroscopicity / water uptake” value is “remains anhydrous and is not hygroscopic”.
